Data reported in PMC7714403 (JCI Insight, 2020).
Where two headings read alike, the source gives them in different places.

Tests used:
[1] = test system: primary FLT3-ITD/IDH2-R140Q murine leukemia cells; assay: CellTiterGlo viability assay, ex vivo; assay type: cell-based; conditions: Mus musculus, 72 hours
Method: (§1) Drug treatments were carried out for 72 hours. Details are provided in the Supplemental Methods.
(§2) Cell viability of primary samples […]
(§3) For murine or human primary AML cells, 100,000 cells/well were plated in a 96-well plate and treated with increasing concentrations of drug. Cell viability, via trypan blue, was measured every 24 hours. If the viability fell below 50% or at 72 hours of treatment, whichever came earlier, cell viability of each plate was measured via

[2] = test system: Ba/F3 cells expressing FLT3 D835Y; assay: MTT viability assay; assay type: cell-based; conditions: Mus musculus, read-out: IC50 viability
Method: as §1

Ba/F3 cells GFP+IL3 = assay: MTT viability assay; assay type: cell-based; conditions: Mus musculus, read-out: IC50 viability
Method: as §1

[3] = test system: Ba/F3 cells expressing FLT3 ITD/D835Y; assay: MTT viability assay; assay type: cell-based; conditions: Mus musculus, read-out: IC50 viability
Method: as §1

[4] = test system: Ba/F3 cells expressing FLT3 ITD/D835H; assay: MTT viability assay; assay type: cell-based; conditions: Mus musculus, read-out: IC50 viability
Method: as §1

[5] = test system: Ba/F3 cells expressing FLT3 D835H; assay: MTT viability assay; assay type: cell-based; conditions: Mus musculus, read-out: IC50 viability
Method: as §1

MOLM13 cells [6] = assay: MTT viability assay; assay type: cell-based; conditions: Homo sapiens, read-out: IC50 viability
Method: as §1

MV4-11 cells [7] = assay: MTT viability assay; assay type: cell-based; conditions: Homo sapiens, read-out: IC50 viability
Method: as §1

MOLM13-RES cells = assay: MTT viability assay; assay type: cell-based; conditions: Homo sapiens, read-out: IC50 viability
Method: as §1

[8] = test system: Ba/F3 cells expressing FLT3-ITD; assay: MTT viability assay; assay type: cell-based; conditions: Mus musculus, read-out: IC50 viability
Method: as §1

[9] = test system: Ba/F3 cells expressing FLT3-ITD/F691L; assay: MTT viability assay; assay type: cell-based; conditions: Mus musculus, BaF3, 72 hours
Method: as §1

MOLM13 cells [10] = assay: MOLM13 viability ± coculture with HS5-GFP MSCs (MTT); assay type: cell-based; conditions: Homo sapiens
Method: Drug treatments were carried out for 72 hours. Details are provided in the Supplemental Methods. […]
HS5-GFP human bone marrow stromal cells were plated and cultured for 72 hours to near confluence.
MOLM13 cells were then seeded onto HS5-GFP cells to establish a co-culture. Twenty-four hours later, cells
were treated with increasing concentrations of drug for an additional 72 hours. MOLM13 and HS5-GFP cells
were then separated and MTT assay s were performed for cell viability assessment of each cell population. […]

[11] = test system: human primary AML samples; assay: CellTiterGlo viability assay, ex vivo; assay type: cell-based
Method: as §1, §2
as §3, with “measured via CellTiter-Glo. Primary human AML cells were obtained from the OSUCCC Leukemia Tissue Bank Shared […]” for “measured via”
Primary AML samples were analyzed by targeted gene sequencing of 80 genes, as previously described (1). Samples were pooled and analyzed on a MiSeq system using the Illuminia MiSeq Reagent Kit v3. Ill umina Isis Banded Smith Waterman aligner and hg19 genome were used to align the sequences. Single nucleotide variant (SNV) and indel calling were performed using MuTect and Varscan2. A variant allele fraction (VAF) cut-off of 0.10 was set for reporting mutations. SNV that are reported as pathogenic SNP were considered mutations.
All other SNV needed to be absent from 1000 Genome database, dsSNP137 or dsSNP142. Visual inspection of all variants was carried out using Integrative Genomics Viewer (Broad Institute) . […]

MOLM13 cells [12] = assay: MOLM13 viability ± cytokines (MTT); conditions: Homo sapiens
Method: Drug treatment effects on cell lines were assessed by MTT assay (Roche Diagnostics), as previously described ([21]). […] Drug treatments were carried out for 72 hours.

MV4-11 cells [13] = assay: CFU assay with IL-3, GM-CSF or FGF2; assay type: cell-based, human; conditions: 7-day MV4-11 CFU assay
Method: For human primary CFU assays, cells were cultured in MethoCult H4035 Optimum without EPO (Stemcell Technologies). For mouse primary CFU assays, cells were directly cultured in MethoCult M3231 (Stemcell Technologies) supplemented with 45 ng/mL of murine IL-6 (mIL-6), mIL-3, and mSCF. Both human and mouse primary cells 10,000 cells were plated in duplicate for each drug concentration. For cell line CFU assays, MV4-11 cells were treated with drugs in the presence of 20 ng/mL IL-3, GM-CSF, or FGF2. Cells were plated in MethoCult H4230 (Stemcell Technologies) in duplicates at 250 cells/plate. Plates were placed in a 37°C incubator for 7 or 14 days for human cell lines and for mouse or human primary cells, respectively. Colonies were identified as clusters containing 40 or more cells. For CFU assays using human primary CD34^+ cells, umbilical cord blood was obtained from the OSU Comprehensive Cancer Center (CCC) Leukemia Tissue Bank Shared Resource, and mononuclear cells were isolated by using density gradient centrifugation. CD34^+ cells were purified using the CD34 UltraPure MicroBead Kit (Miltenyi Biotec) according to the manufacturer’s instructions. CFU assay with CD34^+ cells was performed as described above, and the total number of colonies were counted after 7–10 days.

[14] = BaF3, Ba/F3 FLT3 D835Y, MTT, 72 hours
[15] = BaF3, Ba/F3 GFP+IL3, MTT, 72 hours
[16] = BaF3, Ba/F3 FLT3 ITD/D835Y, MTT, 72 hours
[17] = BaF3, Ba/F3 FLT3 ITD/D835H, MTT, 72 hours
[18] = BaF3, Ba/F3 FLT3 D835H, MTT, 72 hours
[19] = MOLM-13, MOLM13, FLT3-ITD, MTT, 72 hours
[20] = MV4-11, FLT3-ITD, MTT, 72 hours
[21] = MOLM13-RES, FLT3-ITD/D835Y, MTT, 72 hours
[22] = BaF3, Ba/F3 FLT3 ITD, MTT, 72 hours
[23] = MOLM-13, MOLM13 + HS5-GFP co-culture, read-out: IC50 viability
[24] = MOLM-13, MOLM13 alone (co-culture experiment), read-out: IC50 viability
[25] = sample 240: FLT3-ITD, IDH2, NPM1, read-out: IC50 viability
[26] = sample 370: FLT3-ITD, IDH1, NPM1, SMARCA2, read-out: IC50 viability
[27] = sample 0762 (762): FLT3-ITD, NRAS, KRAS, DNMT3A, NPM1, D835E, read-out: IC50 viability
[28] = sample 1069: FLT3-ITD, SRSF2, IDH2, DNMT3A, read-out: IC50 viability
[29] = sample 1355: FLT3-ITD, NPM1, IDH2, read-out: IC50 viability

| IC50 [1] [nM] | IC50 [2, 14] [nM] | IC50 (Ba/F3 cells GFP+IL3; [15]) [nM] | IC50 [3, 16] [nM] | IC50 [4, 17] [nM] | IC50 [5, 18] [nM] | IC50 (MOLM13 cells [6]; [19]) [nM] | IC50 (MV4-11 cells [7]; [20]) [nM] | IC50 (MOLM13-RES cells; [21]) [nM] | IC50 [8, 22] [nM] | IC50 [9] [nM] | IC50 (MOLM13 cells [10]; [23]) [nM] | IC50 (MOLM13 cells [10]; [24]) [nM] | Compound | IC50 [11, 25] [nM] | IC50 [11, 26] [nM] | IC50 [11, 27] [nM] | IC50 [11, 28] [nM] | IC50 [11, 29] [nM] | IC50 (Ba/F3 cells GFP+IL3; BaF3, 72 h) [nM] | further results |
| --- | --- | --- | --- | --- | --- | --- | --- | --- | --- | --- | --- | --- | --- | --- | --- | --- | --- | --- | --- | --- |
| 3100 | 0.068 | 773 | 35 | 38 | 0.27 | 7.4 | 6.6 | 11 | 1.8 | 58 | 20 | 5 | CC1(COc2ccc3c(c2)ncn3-c2ccc3cccc(N4CCC(N)CC4)c3n2)COC1 [Crenolanib, crenolanib] | 90 | 192 | 547 | 488 | 305 |  |  |
|  |  |  |  |  |  |  |  |  |  |  |  |  | CC(C)(C)c1cc(NC(=O)Nc2ccc(-c3cn4c(n3)sc3cc(OCCN5CCOCC5)ccc34)cc2)no1 [Quizartinib, quizartinib] |  |  |  |  |  | > 10000 | IC50 (MOLM13 cells [6]; MOLM-13, 72 h): 2.5 nM; IC50 (MV4-11 cells [7]; MV4-11, 72 h): 1.7 nM; IC50 (MOLM13-RES cells; 72 h): 400 nM; IC50 (MOLM13 cells [10]; MOLM-13, read-out: IC50 viability, MOLM13 + HS5-GFP co-culture): 4.7 nM; IC50 ([11]; read-out: IC50 viability, sample 240: FLT3-ITD, IDH2, NPM1): 238 nM; IC50 ([11]; read-out: IC50 viability, sample 370: FLT3-ITD, IDH1, NPM1, SMARCA2): 375 nM; IC50 ([11]; read-out: IC50 viability, sample 0762 (762): FLT3-ITD, NRAS, KRAS, DNMT3A, NPM1, D835E): 357 nM; IC50 ([11]; read-out: IC50 viability, sample 1069: FLT3-ITD, SRSF2, IDH2, DNMT3A): 195 nM; IC50 ([11]; read-out: IC50 viability, sample 1355: FLT3-ITD, NPM1, IDH2): 400 nM |
| > 10000 | 233 | 3850 | 3340 | 463 | 76 | 26 | 8 | 1790 | 1.4 | 1340 | 70 | 14 | CNC(=O)c1cc(Oc2ccc(NC(=O)Nc3ccc(Cl)c(C(F)(F)F)c3)cc2)ccn1 [Sorafenib, sorafenib] | 1480 | 1030 | 195 | 357 | 3530 |  | IC50 ([11]; sample 774: FLT3-ITD, CBL, IDH1, NPM1, read-out: IC50 viability): 659 nM |
|  |  | 328 |  | 28 |  |  |  |  |  |  | 99 |  | CO[C@@H]1[C@H](N(C)C(=O)c2ccccc2)C[C@H]2O[C@]1(C)n1c3ccccc3c3c4c(c5c6ccccc6n2c5c31)C(=O)NC4 [Midostaurin, midostaurin] |  |  |  |  |  |  | IC50 ([11]; sample 036: FLT3 wild-type, NRAS, IDH2, NPM1, DNMT3A, read-out: IC50 viability): 334 nM; IC50 (MOLM13 cells [12]; MOLM-13, read-out: IC50 viability, MOLM13 + GM-CSF): 47.4 nM; IC50 (MOLM13 cells [12]; MOLM-13, read-out: IC50 viability, MOLM13, no cytokine): 18.9 nM; Colony formation with IL-3, GM-CSF, or FGF2 (MV4-11 cells [13]): fully or partially rescued |

| Compound | IC50 [1] [nM] | IC50 [2, 14] [nM] | IC50 (Ba/F3 cells GFP+IL3; [15]) [nM] | IC50 [3, 16] [nM] | IC50 [4, 17] [nM] | IC50 [5, 18] [nM] | IC50 (MOLM13 cells [6]; [19]) [nM] | IC50 (MV4-11 cells [7]; [20]) [nM] | IC50 (MOLM13-RES cells; [21]) [nM] | IC50 [8, 22] [nM] | IC50 [9] [nM] | IC50 (MOLM13 cells [10]; [23]) [nM] | IC50 (MOLM13 cells [10]; [24]) [nM] | IC50 [11, 25] [nM] | IC50 [11, 26] [nM] | IC50 [11, 27] [nM] | IC50 [11, 28] [nM] | IC50 [11, 29] [nM] | IC50 (Ba/F3 cells GFP+IL3; BaF3, 72 h) [nM] | further results |
| --- | --- | --- | --- | --- | --- | --- | --- | --- | --- | --- | --- | --- | --- | --- | --- | --- | --- | --- | --- | --- |
| Cc1ccc(C(=O)Nc2ccc(CN3CCN(C)CC3)c(C(F)(F)F)c2)cc1C#Cc1cnc2cccnn12 [Ponatinib, ponatinib] |  |  |  |  |  |  |  |  |  |  | 41.9 |  |  |  |  |  |  |  | 920 | IC50 ([2]; BaF3, 72 h): 158 nM; IC50 ([3]; BaF3, 72 h): 106 nM; IC50 ([4]; BaF3, 72 h): 126 nM; IC50 ([5]; BaF3, 72 h): 89 nM; IC50 ([8]; BaF3, 72 h): 2.8 nM |
